# Data: patent publication EP0339978B1, “Fused polycyclic compounds, compositions, methods of manufacture, and their use as PAF antagonists, antihistamines and/or antiinflammatory agents” (SCHERING CORPORATION, priority 1988, dated 1989)
# Legend:
# [1] = tested on: Cellular and Fluid Influx to Rat Pleural Cavity; test: Inhibition of cellular and fluid influx to rat pleural cavity (antiinflammatory activity assay); type: in vivo; details: 25 mg 1 kg p.o., rats
# Protocol: Compounds 3.0 of this invention are useful for the treatment of inflammation; thus, they are useful for the treatment of arthritus, bursitis, tendonitis, gout, and other inflammatory conditions. […] Protection against cellular and fluid influx strongly indicates antiinflammatory properties. D. Antiinflammatory Activity Assay Inhibition of Cellular and Fluid Influx to Rat Pleural Cavity. Groups of 4 male rats are injected in the penile vein with antigen (1 mg BSA in 0.2 mL of saline per rat) and 0.5 hour later injected in the pleural cavity with antibody (1.0 mg antibody protein in the IgG fraction of rabbit anti-BSA in 0.2 mL). […] After 4 hours the animals are killed with CO2, and the pleural cavities are opened and the exudate is drained into a graduated conical glass centrifuge tube containing indomethacin (1.8 ug) and nordihydroguaiaretic acid (NDGA) (15 ug) to block ex vivo metabolite synthesis. The volume of the exudate is measured. The cavity is then washed out with saline-EDTA to achieve a final volume of 5.0 mL. The number of cells is determined in a Coulter Counter. The cells are spun-down (1000 x g) and the exudate supernatant is added to 4 volumes of 95% ethanol and samples are kept on ice for 30 minutes. After removal of the protein precipitate (2,500 x g) the ethanol extract of the exudate is dried under N2 and then is stored at -20°C. […]
# PAF = PAF antagonism in vitro assay: PAF-induced platelet aggregation in platelet-rich plasma; type: cell-based; details: PAF 1-5 X 10^-8M, human PRP
# Protocol: Preparation of platelet-rich plasma (PRP): Human blood (50 ml) is collected from healthy male donors. The blood is mixed with an anticoagulant solution (5 ml) containing sodium citrate (3.8%) and dextrose (2%). Blood is centrifuged at 110 X g for 15 min. and the supernatant PRP is carefully transferred into a polypropylene tube. Platelet-poor-plasma (PPP) is prepared by centrifuging PRP at 12,000 X g for 2 min. in a Beckman Microfuge B. PRP is used within 3 hours of drawing the blood.
# Platelet Aggregation Assay: When an aggregating agent such as PAF is added to PRP, platelets aggregate. An aggregometer quantifies this aggregation by measuring light (infra-red) transmission through PRP and comparing it to transmission through PPP. The aggregation assays are performed using a dual-channel aggregometer (Model 440, Chrono-Log Corp., Havertown, PA). PRP (0.45 ml) in aggregometer curettes is continually stirred (37°C). Solutions of test compounds or vehicle are added to the PRP, and, after incubation for 2 min., 10-15 µl aliquots of pAF solution are added so as to achieve a final concentration of 1-5 X 10^-8M. Incubations are continued until the increase in light transmission reaches a maximum (usually about 2 min). Values for inhibition are calculated by comparing maximal aggregation obtained in the absence and the presence of the compound. For each experiment, a standard PAF antagonist, such as alprazolam, is used as a positive internal control. The inhibitory concentration is the concentration of compound in micromoles at which the indicated % inhibition of the aggregation is found, as measured by the light transmission through each sample of PRP as compared to that through each sample of PPP.
smiles,measurement,setting,value
"O=C1c2ccccc2CCc2c1[nH]c1ccccc21 [Compound E, 11,12-Dihydrobenzo[5,6]cyclohepta[1,2-b]indol-6(5H)-one]",reduced cellular influx to the pleural cavity,[1],65%
same,reduced fluid influx to the pleural cavity,[1],25%
CC(=O)N1CCC(=C2c3ccccc3CCc3sc(C)nc32)CC1 [compound 4],Inhibition (%),PAF; Dose 12 μm,29%
same,Inhibition (%),PAF; Dose 25 μm,71%
same,Inhibition (%),PAF; Dose 50 μm,100%
COc1ccc(Cn2c(C)nc3c2CCc2ccccc2C3=C2CCN(C(C)=O)CC2)cc1 [compound 5],Inhibition (%),PAF; Dose 50 μm,67%
